The target of experiment [1] is [^3 H]-spiroperidol binding (receptor assay). Kind of experiment: Inhibition of [^3 H]spiroperidol binding, receptor assay. As for the experimental part:
(§1) The compounds of Formula I are valuable dopaminergic agents. […] Thus, the compounds of Formula I were tested for their ability to inhibit locomotor activity in mice according to the assay described by J. R. McLean, et al, Pharmacology, Biochemistry and Behavior, Volume 8, pages 97-99 (1978); for their ability to inhibit [^3 H]-spiroperidol binding in a receptor assay described by D. Grigoriadis and P. Seeman, Journal of Neurochemistry, Volume 44, pages 1925-1935 (1985); and for their ability to inhibit dopamine synthesis in rats according to the protocol described by J. R. Walters and R. H. Roth, Naunyn-Schmiedeberg's Archives of Pharmacology, Volume 296, pages 5-14 (1976). The above test methods are incorporated herein by reference. The data in the table show the dopaminergic activity of representative compounds of Formula 1.

Experiment [2] deals with locomotor activity in mice. Put plainly: Inhibition of locomotor activity in mice. The experiment is classed as in vivo. The settings on record: Mus musculus, IP. As for the experimental part: as §1
Experiment [3] concerns brain dopamine synthesis in rats. Put plainly: Reversal of brain dopamine synthesis in rats (inhibition of dopamine synthesis). The experiment is classed as in vivo. The settings on record: 10 mg/kg, IP. The procedure: as §1

Turning to `C(#Cc1cnc2ccccc2c1)CCN1CCN(c2ccccn2)CC1` [Example 1, 3-[4-[4-(2-Pyridinyl)-1-piperazinyl]-1-butynyl]-quinoline], in experiment [1], the IC50 – broadly, the point on the concentration scale where inhibition reaches its midpoint – is 177 nM. Besides, the ED50 (commonly the dose at which the effect has come halfway, by size or by number of responders) in experiment [2] was 1.5 mg/kg.

In experiment [1], `Fc1ccc(N2CCN(CCC#Cc3cccnc3)CC2)cc1` [Example 2, 1-(4-Fluorophenyl)-4-[4-(3-pyridinyl)-3-butynyl]-piperazine] came in with an IC50 of 2330 nM. The molecule also showed an ED50 in experiment [2] of 4.7 mg/kg. In addition, the “% Reversal of Brain Dopamine Synthesis in Rats” value (from here on “% Reversal”) in experiment [3] was determined as 20%.

The molecule `C(#Cc1cccnc1)CCN1CCN(c2ccccn2)CC1` [Example 3, 1-(2-Pyridinyl)-4-[4-(3-pyridinyl)-3-butynyl]-piperazine] came in with a 50% inhibitory concentration (IC50) in experiment [1] of 6530 nM. This molecule also showed an ED50 in experiment [2] of 2.2 mg/kg.

Regarding `O=[N+]([O-])c1ccc(C#CCCN2CCN(c3ccccn3)CC2)nc1` [Example 5, 1-[4-(5-Nitro-2-pyridinyl)-3-butynyl]-4-(2-pyridinyl)piperazine], the IC50 in experiment [1] was over 10000 nM. In experiment [2], this molecule had a 50% effective dose (ED50) of 14.1 mg/kg.

On to `O=[N+]([O-])c1ccc(C#CCCN2CCN(c3ccccn3)CC2)cc1` [Example 6, 1-[4-(4-Nitrophenyl)-3-butynyl]-4-(2-pyridinyl)-piperazine], for which the IC50 in experiment [1] is 2500 nM. In experiment [2], this molecule gave an ED50 of 7.7 mg/kg.

As for `Nc1ccc(C#CCCN2CCN(c3ccccn3)CC2)nc1` [Example 7, 6-[4-[4-(2-Pyridinyl)-1-piperazinyl]-1-butynyl]-3-pyridinamine], the IC50 in experiment [1] worked out at 1900 nM. In addition, in experiment [2], the ED50 is 0.35 mg/kg. Also, the “% Reversal” value in experiment [3] is listed as 24%.

As to `Nc1ccc(C#CCCN2CCN(c3ccccn3)CC2)cc1` [Example 8, 4-[4-[4-(2-Pyridinyl)-1-piperazinyl]-1-butynyl]-benzenamine], in experiment [1], the half-inhibitory concentration (IC50) stood at 611 nM. Moreover, the 50% effect level in experiment [2] (ED50) was put at a dose of 0.56 mg/kg. In addition, the “% Reversal” value in experiment [3] was 63%.
